“Also recorded” adds a separate entry of the source.
Key:
[1] = system: c-Fos protein in rat medial prefrontal cortex; assay: Restraint-stress-induced c-Fos activation (ELISA); details: 3 mg/kg IP 30 min before 20 min restraint, 3 mg/kg
Method: Thirty min later, rats were restrained in a rigid plastic flat-bottom restraint tube (Braintree Scientific, Inc.; Braintree, MA, USA) for 20 min. After the 20 min stress period, rats were moved to a new cage and housed individually. Rats were sacrificed 2 h after stress onset. […] Immediately after sacrifice, brains were removed, the medial prefrontal cortex (mPFC), a brain area implicated in the pathophysiology of depression, was dissected from both hemispheres and frozen in 1.5 ml centrifuge tubes in dry ice, and stored at −80°C for later analysis.
Frozen mPFC tissues were removed from the −80°C freezer and placed on ice. Tissue was homogenized with a dounce homogenizer. The nuclear extract was prepared from the homogenized samples as per manufacturer's instructions using a CHEMICON ®Nuclear Extraction Kit (Millipore; Billerica, MA, USA). Protein concentrations were determined in the nuclear extracts using the Pierce BCA Protein Assay kit (Pierce Biotechnology, Inc., Rockford, IL, USA). Nuclear fractions were then assayed for Fos protein levels using the Pierce c-Fos Transcription Factor Kit (Pierce Biotechnology, Inc., Rockford, IL, USA), according to the manufacturer's instructions. […] Data were analyzed and plotted using GraphPad Prism (GraphPad Software, Inc.; La Jolla, CA, USA).

[2] = system: mice lacking OX1 receptors; assay: DRL 36-s schedule of reinforcement in OX1 KO mice; type: in vivo, mouse; details: for Lever Presses Mean / Reinforcers Mean: OX1 KO mice DRL-36-s, raw data; for Lever presses emitted / Reinforcers received: DRL-36-s
From the text: (§1) Rats were acclimated to housing conditions for 4 days, followed by sham dosing once daily for 3 days, prior to the experiment. For DRL experiments, male Sprague–Dawley rats weighing between 300 and 350 g at the beginning of the behavioral experiments (Holtzman, Madison, WI) were housed in pairs. For mouse DRL studies, male C57Bl/6 mice (Taconic Farms, Hudson, NY) or mice lacking either OX1 or OX2 receptors, around 8 weeks of age, were obtained from private breeding colonies at Taconic Farms (Hudson, NY). OX1 and OX2 receptor knockout mice were generated using in vitro fertilization of embryos in C57Bl/6 female mice with sperm harvested from male mice obtained from the University of Texas Southwestern Medical Center (Dallas, TX), and backcrossed for at least 10 generations. Mice and rats were housed in separate colony rooms, which were maintained at 22°C and 60% relative humidity. For rat DRL experiments, water was available for a 20-min period following the daily behavioral session. Based on recommendations from the animal care and use committee, the mouse DRL assay was developed using food deprivation rather than water deprivation. […] All experiments were conducted during the light cycle and in compliance with the Guide for the Care and Use of Laboratory Animals under protocols approved by a local animal care and use committee.
(§2) The levers in these chambers were mounted on one wall with an adjacent food magazine next to the lever in the middle of the wall. A reinforced response caused a clicker apparatus to activate and the pellet feeder to deposit one 45-mg sucrose pellet (BioServ, Frenchtown, NJ) into the food magazine. The house light, which was mounted on the ceiling, was turned on when the session began, remained on throughout the entire session, and was turned off at the end of the session. Each experimental chamber was enclosed in a melamine sound-attenuating cubicle and equipped with a white noise generator to provide masking noise.
(§3) Each mouse was initially trained under a variable time 60-s operant schedule for 5 days, followed by fixed ratio-1 ratio schedule for 5 days. After the mice had acquired lever-pressing behavior, they were trained during daily DRL 6-s sessions for ~1 week, then mice progressed through weekly ascending DRL requirements (12, 18, 24, 30 s) before moving to DRL 36-s sessions. […] Experimental sessions lasted for 45 min and were conducted 5 days/week during light hours.
(§4) Drugs were administered to the animals once or twice weekly with at least 1 week between subsequent drugs to minimize possible carryover effects. Drug treatments were administered on Tuesdays and Fridays. No treatments were administered on other test days. Wednesdays were control days. “Control” behavior was calculated as the pooled mean lever presses or reinforcers received during Wednesday sessions across all Wednesdays for the duration of each study. Performance was normalized to percent of control by dividing total responses (or reinforcers) for each drug or vehicle treatment by the mean number of responses (reinforcers) in the respective pooled control condition, multiplied by 100.
(§5) The data analyses were conducted on the raw response and reinforcement data. All behavioral data are expressed as the mean ± s.e.m. normalized to the control condition.

[3] = system: mice lacking OX2 receptors; assay: DRL 36-s schedule of reinforcement in OX2 KO mice; type: in vivo, mouse; details: for Lever Presses Mean / Reinforcers Mean: OX2 KO mice DRL-36-s, raw data; for Lever presses emitted / Reinforcers received: mice lacking OX2 receptors, DRL-36-s
From the text: as §1, §2, §3, §4, §5

Sprague–Dawley rats = assay: DRL 72-s schedule of reinforcement in rats; type: in vivo, rat; details: for Lever Presses Mean / Reinforcers Mean: HSD rats DRL-72-s, raw data
From the text: Each chamber was enclosed in a melamine sound-attenuating cubicle. A white noise generator provided masking noise. The interior of each chamber consisted of three levers mounted on one wall with a house light mounted on the opposite wall. The house light was turned on at initiation of each test session and was turned off at the termination of each session. A water access port was situated next to the lever in the middle of the wall, wherein a reinforced response caused a clicker apparatus to sound paired with a dipper (0.02-ml cup) to be lifted from a water trough to an opening in the floor of the access port for 4 s.
Rats were initially trained under an alternative fixed ratio 1 water reinforcement schedule with a fixed 1-min time schedule for automatic reinforcement. Thus, each response was reinforced, with water also provided every minute in the absence of a response. […] Following acquisition of lever-pressing behavior, rats were trained daily on DRL 18-s sessions for ~2 weeks, following which they were advanced to DRL 72-s sessions. Responding on these sessions became stable after ~8 weeks. Experimental test sessions lasted for 1 h and were conducted 5 days/week during light hours.
as §4, §5

C57Bl/6 mice = assay: DRL 36-s schedule of reinforcement in wild-type mice; type: in vivo, mouse; details: for Lever Presses Mean / Reinforcers Mean: WT mice DRL-36-s, raw data
From the text: as §2, §3, §4, §5

[4] = mice lacking OX1 receptors, 15 mg/kg
[5] = 10 mg/kg, positive control in the SB334867 experiment
[6] = rats DRL-72-s, 10 mg/kg, normalized to control days
[7] = rats DRL-72-s, 10 mg/kg, positive control in the SB334867 experiment
[8] = mice lacking OX1 receptors, 20 mg/kg

Cc1nnc2n1-c1ccc(Cl)cc1C(c1ccccc1)=NC2 [alprazolam]
Effect on restraint stress-induced increase in c-fos expression in prefrontal cortex [1]: attenuated; also recorded: blocked

CN(C)CCCN1c2ccccc2CCc2ccccc21 [imipramine]
Lever Presses Mean ([2]; dose 3 mg/kg): 177.63 | Lever Presses Mean ([2]; dose 10 mg/kg): 174.13 | Reinforcers Mean ([2]; dose 10 mg/kg): 24.25 | Lever Presses Mean ([2]; dose 15 mg/kg): 128.50 | Reinforcers Mean ([2]; dose 15 mg/kg): 31.13 | Lever presses emitted [2, 4]: 63 % of control | Reinforcers received [2, 4]: 206 % of control | Effect on lever pressing, in words ([2]; mice lacking OX1 receptors, doses lower than 15 mg/kg): did not affect lever pressing | Lever Presses Mean ([3]; dose 10 mg/kg): 165.25 | Reinforcers Mean ([3]; dose 10 mg/kg): 27.88 | Lever Presses Mean ([3]; dose 15 mg/kg): 116.88 | Reinforcers Mean ([3]; dose 15 mg/kg): 33.00 | Lever presses emitted ([3]; 15 mg/kg): 70 % of control | Reinforcers received ([3]; 15 mg/kg): 140 % of control | Lever Presses Mean (Sprague–Dawley rats; 10 mg/kg, positive control in the LSN2424100 experiment): 55.71 | Lever Presses Mean (Sprague–Dawley rats; [5]): 49.00 | Reinforcers Mean (Sprague–Dawley rats; [5]): 18.57 | Lever Presses Mean (Sprague–Dawley rats; dose 1 mg/kg): 77.50 | Reinforcers Mean (Sprague–Dawley rats; dose 1 mg/kg): 9.92 | Lever Presses Mean (Sprague–Dawley rats; dose 3 mg/kg): 68.42 | Reinforcers Mean (Sprague–Dawley rats; dose 3 mg/kg): 15.17 | Lever Presses Mean (Sprague–Dawley rats; dose 10 mg/kg): 46.17 | Reinforcers Mean (Sprague–Dawley rats; dose 10 mg/kg): 20.33 | Reinforcers received (Sprague–Dawley rats; [6]): 210 % of control | Total lever presses emitted (Sprague–Dawley rats; [6]): 51 % of control | Lever presses (Sprague–Dawley rats; [7]): 64 % of control | Reinforcers received (Sprague–Dawley rats; [7]): 160 % of control | Effect on DRL behavior (lever presses, reinforcers), in words (Sprague–Dawley rats; rats DRL-72-s, doses of 1 and 3 mg/kg): no significant effect on behavior

Cc1nc2ccc(NC(=O)Nc3ccnc4cccnc34)cc2o1 [SB334867]
Lever Presses Mean ([2]; dose 1 mg/kg): 209.75 | Reinforcers Mean ([2]; dose 1 mg/kg): 15.00 | Lever Presses Mean ([2]; dose 3 mg/kg): 169.00 | Reinforcers Mean ([2]; dose 3 mg/kg): 23.88 | Lever Presses Mean ([2]; dose 10 mg/kg): 163.63 | Reinforcers Mean ([2]; dose 10 mg/kg): 22.88 | Lever Presses Mean ([2]; dose 20 mg/kg): 141.88 | Reinforcers Mean ([2]; dose 20 mg/kg): 28.75 | Lever Presses Mean ([2]; dose 40 mg/kg): 68.13 | Reinforcers Mean ([2]; dose 40 mg/kg): 21.38 | Lever presses emitted [2, 8]: 75 % of control | Reinforcers received [2, 8]: 166 % of control | Lever presses emitted ([2]; mice lacking OX1 receptors, 40 mg/kg): 35 % of control | Reinforcers received ([2]; mice lacking OX1 receptors, 40 mg/kg, not significant): 123% | Effect on lever presses emitted or reinforcers received, in words (C57Bl/6 mice; C57Bl/6 mice DRL-36-s, up to 40 mg/kg): did not significantly affect | Lever Presses Mean (C57Bl/6 mice; dose 3 mg/kg): 162.86 | Reinforcers Mean (C57Bl/6 mice; dose 3 mg/kg): 17.14 | Lever Presses Mean (C57Bl/6 mice; dose 10 mg/kg): 157.57 | Reinforcers Mean (C57Bl/6 mice; dose 10 mg/kg): 16.14 | Lever Presses Mean (C57Bl/6 mice; dose 20 mg/kg): 148.57 | Reinforcers Mean (C57Bl/6 mice; dose 20 mg/kg): 18.43 | Lever Presses Mean (C57Bl/6 mice; dose 40 mg/kg): 87.67 | Reinforcers Mean (C57Bl/6 mice; dose 40 mg/kg): 22.33 | Lever Presses Mean ([3]; dose 1 mg/kg): 175.50 | Reinforcers Mean ([3]; dose 1 mg/kg): 19.50 | Lever Presses Mean ([3]; dose 3 mg/kg): 155.75 | Reinforcers Mean ([3]; dose 3 mg/kg): 21.50 | Lever Presses Mean ([3]; dose 10 mg/kg): 167.75 | Reinforcers Mean ([3]; dose 10 mg/kg): 22.75 | Lever Presses Mean ([3]; dose 20 mg/kg): 149.50 | Reinforcers Mean ([3]; dose 20 mg/kg): 26.25 | Lever Presses Mean ([3]; dose 40 mg/kg): 27.38 | Reinforcers Mean ([3]; dose 40 mg/kg): 17.50 | Lever presses emitted ([3]; 40 mg/kg): less than 20 % of control | Reinforcers received ([3]; 40 mg/kg): 75 % of control | Lever Presses Mean (Sprague–Dawley rats; dose 3 mg/kg): 76.57 | Reinforcers Mean (Sprague–Dawley rats; dose 3 mg/kg): 11.00 | Lever Presses Mean (Sprague–Dawley rats; dose 10 mg/kg): 70.71 | Reinforcers Mean (Sprague–Dawley rats; dose 10 mg/kg): 12.43 | Lever Presses Mean (Sprague–Dawley rats; dose 30 mg/kg IP): 71.86 | Reinforcers Mean (Sprague–Dawley rats; dose 30 mg/kg IP): 11.00 | Change in reinforcers received or total lever presses made, in words (Sprague–Dawley rats; rats DRL-72-s, doses up to 30 mg/kg): did not produce a significant change

Source: PMC3904085 (Frontiers in Neuroscience, 2014)
